Experimental data from US20230382934A1, “HIGH ENTROPY OXIDES AND METHODS OF SYNTHESIS AND USE THEREOF” (Auburn University, priority 2022, published 2023).

What was measured:
[1] = Catalase activity (degradation of H2O2, absorbance at 240 nm); type: biochemical; conditions: Mn(II) complex, 100 nM, 10 mM H2O2, 100 mM phosphate pH 7.0
Experimental: (§1) FIG. 31 depicts representative kinetic traces for the reaction between 100 nM 1 and 10 mM H2O2 in 100 mM phosphate solution buffered to pH 7.0. The absorbance at 240 nm was monitored over time. Activity values were calculated using the UV-1601PC Kinetics program and converted to an initial rate (vo/[1]T) using the following equation: vo/[1]T=(activity)/[60 s×0.01 μM×0.0000394 μM^−1 cm^−1×1.0 cm].
as §1, with “FIG. 66” for “FIG. 31”, “in 200” for “in 100”, “vo/[1]T=(activity)/[60 s×0.1” for “vo/[1]T=(activity)/[60 s×0.01”, “cm^−1×1.0 cm]” for “cm^−1×1.0 cm].”
FIG. 67, comprising FIG. 67A and FIG. 67B, depicts a Michaelis-Menten fit of the activity of 1. FIG. 67A depicts activity of 1 with increasing concentrations of H2O2. All reactions were performed in 200 mM phosphate buffered to pH 7.0 at 25° C. with an initial 100 nM concentration of 1. […]
In order to assess the ability of the Mn(II) complex to catalyze the degradation of H2O2, we reacted 100 nM 1 with 10 mM H2O2 in 100 mM phosphate solution buffered to pH 7.0 and monitored the absorbance at 240 nm over time. […] The consumption of H2O2 was evaluated using a UV-1601 Shimadzu spectrophotometer.

[2] = T1-weighted relaxivity response to H2O2, 3 T clinical MRI scanner; conditions: Example 1, Mn(II) complex with H4qp4
Experimental: The relaxivities of complex 1 before and during its reaction with H2O2 were assessed using a 3 T MRI scanner (FIG. 27D). T1 values were measured for aqueous solutions containing 0-1.0 mM 1 and 50 mM HEPES buffered to pH 7.00. For each concentration of 1, an oxidized sample was also prepared by adding 10 mM H2O2; the large excess of oxidant was used to ensure as full a turn-on as possible at the timepoints and to facilitate comparisons to manganese-containing MRI contrast agents that were previously prepared and characterized. The T1 values for the H2O2-containing solutions were measured 1 h and 2 h after the reagents were initially mixed. Full series of data were collected for two independently prepared batches of 1 in order to confirm that the results were replicable.
The MRI properties of 1 were assessed using methods that were previously employed in studies of manganese-containing MRI contrast agents. The relaxivity of 1 was measured before and after its reaction with excess H2O2 using a 3 T MRI scanner (FIG. 51). The r1 for the pre-activated complex was calculated from the T1 values of aqueous solutions containing 50 mM HEPES buffered to pH 7.00 and 0-1 mM 1. T1 measurements were also acquired for oxidized samples that contained 10 mM H2O2 in addition to the aforementioned reagents. The T1 values were measured 30 min and 60 min after the solution samples were initially prepared. […]

initial rate vo/[1]T [1]: 6600 s⁻¹
Substance: (1,8-Bis(2,5-dihydroxybenzyl)-1,4,8,11tetraazacyclotetradecane)manganese(II) triflate [Complex 1]
increase in r1 upon oxidation by H2O2 [2]: 130%
